Assay results published in patent US20080051413A1, “Nitrophenylpiperazine derivative of xanthine which relaxes tracheal airway and increases respiratory performance” (KAOHSIUNG MEDICAL UNIVERSITY, priority 2006, published 2008).

Experiments:
[1] = tested on: PDE4 purified from human U-937 pronocytic cells; experiment: Phosphodiesterase activity, PDE4; assay type: biochemical; settings: 10 _M compound, n = 3
Protocol: Phosphodiesterase Activity: PDE activity was determined by the method of Nicholson et al. (Nicholson C D, Challiss R A, and Shahid M (1991) Differential modulation of tissue function and therapeutic potential of selective inhibitors of cyclic nucleotide phosphodiesterase isonzymes. Trends Pharmaclo Sci 12:19-27). PDE3 and PDE5 purified from human platelets and PDE4 purified from human U-937 pronocytic cells were used. Test compound (10 _M) or vehicle was incubated with 0.2 _g of enzyme and 1 _M cAMP containing 0.01 _M [^3H]cAMP in Tris buffer, pH 7.5, for 20 min at 25_. The reaction was terminated by boiling for 2 min, and the resulting […] was converted to adenosine by the addition of 10 mg/ml snake venom nucleotidase, which is followed by a further incubation at 37_for 10 min. Unhydrolyzed cAMP was bound to AG1-X2 resin, and the remaining [^3H]adenosine in the aqueous phase was quantitated by scintillation counting.

respiratory performance = experiment: Pulmonary function after i.v. injection (RL, Cdyn, tidal volume); assay type: in vivo; settings: 1 mg/kg i.v., guinea pig, n = 3
Protocol: Animals: Male Dunkin Harley guinea pigs (350-450 g) were provide by the National Laboratory Animal Breeding and Research Center (Taipei, Taiwan) and housed under conditions of constant temperature and controlled illumination. Food and water were available and libitum. The study was approved by the Animal Care and Use Committee of the Kaohsiung Medical University.
Pulmonary Function: Guinea pegs (350-450 g) were anesthetized with pentobarbital (40 mg/kg i.p.) and maintained with further i.v. doses of 2 to 5 mg/kg when required according to methods previously described (Wu B N, Lin R J, Lo Y C, Shen K P, Wang C C, Lin Y T, and Chen I J (2004) KMUP-1, a xanthine derivative, induces relaxation of guinea-pig isolated trachea: the role of the epithelium, cyclic nucleotides and K^+ channels, Br J Pharmacol 142:1105-1114). The animal was tethered in a supine position, and the trachea was cannulated below the larynx with a short tracheal cannula via a tracheotomy. Tracheal pressure was measured by a catheter connected to the side arm of the tracheal cannula. The carotid artery and jugular vein were cannulated to monitor blood pressure and heart rate and for drug administration, respectively. Throughout the experiment, the body temperature of the guinea pig was maintained at 37_. Measurements of pulmonary cardiac function were carried out as previously described (Hsu T H, Lai Y L, and Kou Y R (1998) Acetylcholine and tachykinin receptor antagonists attenuate wood smoke-induced bronchoconstriction in Guinea pigs. Eur J Pharmacol 360:175-183). Total lung resistance (RL) and dynamic lung compliance (Cdyn) were measured on a breath-by-breath basis using a computer equipped with an A/D interface (DAS 1600; Buxco Electronics, Inc., Wilmington, N.C.) and software (version 1.5.7; Buxco Electronics, Inc.). Results obtained from the computer analysis were checked for accuracy by comparison with those calculated manually.
Animals were allowed to stabilize for 10 min following surgical manipulations before the test agent was administered. Intratracheal instillation was performed using a catheter placed through the tracheal tube into the bronchial system. The catheter connected to a 1-ml syringe was inserted into the trachea cannula extending 1 cm beyond the tip of the cannula for instillation of drug or vehicle. The instillation was followed by rapid intratracheal injection of 0.5 ml of air to facilitate deposition of drug or vehicle into the lungs as in the modified methods of Chung et al. (2001)(Chung W H, Bennett B M, Racz W J, Brien J F, and […] Fischer 344 rats during aminodarone-induced pulmonary fibrosis. Am J Physiol 281:L1180-L1188). The animals were pretreated intratracheally with KMUP-3 (0.5, 1.0, and 2.0 mg/kg/150 _l of saline) or an equivalent volume (150 _l) of vehicle 15 min before TNF-_(0.01 mg/kg/300 _l saline) was instilled to induce acute bronchoconstriction. In another experiments, KMUP-3 or KMUP-1 (1.0 mg/kg i.v.) were used to compare the effects on respiratory performance, indicated by changes of tidal volume, total RL, and Cdyn.

guinea pig TSM strips = experiment: Determination of nitrite in TSM strips; settings: 100 _M, 30 min, EP+ TSM, basal 0.8±0.1 _M/mg, n=3
Protocol: Determination of Nitrite: To measure concentrations of nitrite (NO2^−) in guinea pig TSM strips, TSM strips were pretreated with KMUP-3 (100 _M) in Krebs' solution for 30 min. Then guinea pig TSM strips (2 ml/g tissue of methanol) were ultrasonically homogenized in an ice bath and then centrifuged at 10,000 g for 10 min at 4_. Briefly, harvestable supernatants were reacted with an equal volume of Griess reagents (1% […]/0.1% N-L-naphthylethylenediamine dihydrochloride/5% H3PO4) for 10 min to form a colored azo dye. The absorbance at 540 nm was detected by a flow-through visible spectrophotometer, and an equal volume of methanol was used for blank control.

[2] = target: T1, PDE5 purified from human platelets (Homo sapiens, UniProt O76074); experiment: Phosphodiesterase activity, PDE5; assay type: biochemical; settings: 10 _M compound, n = 3
T1 construct: PDE3 and PDE5 purified from human platelets; from tissue; host or cells: human platelets
Protocol: The reaction was terminated by boiling for 2 min, and the resulting GMP was converted to adenosine by the addition of 10 mg/ml snake venom nucleotidase, which was followed by a further incubation at 37_ for 10 min. Unhydrolyzed cGMP was bound to AG1-X2 resin, and the remaining [^3H]guanosine in the aqueous phase was quantitated by scintillation counting.

SMILES: Cn1c(=O)c2c(ncn2CCN2CCN(c3ccc([N+](=O)[O-])cc3)CC2)n(C)c1=O [KMUP-3]
- PDE4 Inhibition [1]: 48 ± 2.1 %
- Cdyn, Maximum change of baseline (%) (respiratory performance): 50 ± 5.5 %
- RL, Maximum change of baseline (%) (respiratory performance): −55 ± 4.5 %
- Tidal Volume, Maximum change of baseline (%) (respiratory performance): 21.7 ± 0.5 %
- NO2— release in comparison with the basal level (guinea pig TSM strips): 160±15%
- PDE5 Inhibition [2]: 48 ± 1.9 %
